Consider 88 compounds from a melting point compilation (Tetko et al.; mined from patent text by program, amines drawn as free bases though some values may be those of a salt).

Where only a bound is given, the exact number is not on record here.

As for `CCCCCCC(=O)Nc1cccc2c1C(=O)N(C1CCC(=O)NC1=O)C2=O` (stereo not drawn), the melting point fell in the range of 200 to 202 °C.
As for `Cc1c(-c2ccccc2)oc2c(C(=O)OCCCBr)cccc2c1=O`, the figure is 114 to 115 °C; as for `O=C(O)C1CCc2c(c3cc(F)ccc3n2C(=O)c2ccc(F)cc2)C1` (stereo not drawn), 195 to 196 °C.
For `C#CCNc1ccc([N+](=O)[O-])cc1C(F)(F)F`, the melting point lay within 71 to 72 °C.
In turn, `Nc1scc2c1C(=O)c1ccc(Cl)cc1-2` showed a melting point of 201 to 202 °C.
The figure for `Cc1ccc(Cl)cc1-n1c(CF)nc2ccc([N+](=O)[O-])cc2c1=O` is 191 to 192 °C; for `Cc1nnc2c3cccc(Br)c3ccn12` it is 203 to 204 °C; for `Cc1sc(N2C(=O)c3ccccc3C2=O)c(C(=O)c2ccc(Cl)cc2)c1CN(C)Cc1ccccc1` it is 197 to 199 °C.
`Cc1ccc2c(n1)[nH]c1ccc(C(=O)c3ccccc3)cc12` displayed a melting point of 231 °C.
The figure for `CCNc1nc(-c2ccc(F)cc2C)c2ccc(=O)n(-c3c(F)cccc3F)c2n1` is 195 to 196 °C; for `CCOc1cc2c(c(Cl)c1O)Sc1ccccc1N2` it is 186 to 189 °C; for `O=C(O)CNC(=O)c1ccc(-c2ccc3nnn(Cc4ccc5ncccc5c4)c3n2)cc1F` it is 252 to 254 °C.
Regarding `CCCCc1nc(Cl)c(CO)n1Cc1ccc(OCc2ccccc2)cc1`, the melting point fell in the range of 115 to 116 °C.
As for `Clc1ccc2c(c1)C(c1ccccc1Cl)=NCc1n[nH]cc1-2`, the figure is 142 to 144 °C.
The compound `O=C(NC(=O)c1cccs1)NC1CN2CCC1CC2` (stereo not drawn) gave a melting point of 232 to 233 °C.
`Cc1onc(-c2c(Cl)cccc2Cl)c1CN1C(=O)C2(COc3cc4c(cc32)OCO4)c2ccccc21` (stereo not drawn) gave a melting point of 190 to 192 °C.
Compound `CCOC(=O)C(CCCCCCl)=NO` yielded a melting point of 36 to 38 °C.
As for `COC1(c2cccc(OCc3ccc(-n4ccnc4)cc3)c2)CCOCC1`, the figure is 129 to 130 °C.
On to `COc1ccc(C(=O)c2cc(-c3ccc(Cl)cc3)c(N3CCOCC3)s2)cc1`, for which the melting point is 120 °C.
In the case of `Cc1cc(-c2ncn3c(C(F)(F)F)cc(-c4ccc(Cl)c(C)c4)nc23)ccn1`, the melting point came to 246 °C.
The figure for `O=[N+]([O-])c1ccc(OS(=O)(=O)C(F)(F)F)c2oc3ccccc3c12` is 102 to 103 °C; for `COc1ccc(C(=O)NCCC=CCCCNC(=O)c2ccc(OC)cc2)cc1` it is 141 to 143 °C.
The compound `O=C1CCC(N2C(=O)c3cccc(NCc4cccs4)c3C2=O)C(=O)N1` (stereo not drawn) had a melting point of 223 to 225 °C.
The figure for `CCOC(=O)Cc1cccc(-c2nc(COc3ccc(COc4nn(-c5ccccc5)cc4C=O)cc3OC)c(C)o2)c1` is 145 to 146 °C; for `CN(C)C(c1cccc(F)c1)C1CCC(C=O)CC1` (stereo not drawn) it is 40 to 43 °C; for `Clc1ccc2c(Nc3ccccc3)ccnc2c1` it is 207 °C.
Consider `COc1ccc(N2CCN(c3c(C)c(C)c4c(c3C)C(c3ccoc3)C(C)(C)O4)CC2)cc1` (stereo not drawn), for which the melting point lay in the range of 110 to 113 °C.
`CN(C)c1nc(O)ns1`: the melting point was 142 °C.
For the compound `COc1cc(Nc2cn(Cc3ccccc3)c(=O)c3ccccc23)cc(OC)c1OC`, the melting point was in the range of 162 to 164 °C.
`CNc1ncnc(N2CCc3ccccc32)n1` displayed a melting point of 185 to 187 °C.
The figure for `O=C1N(CC2CCCO2)c2ccccc2C12COc1cc3c(cc12)C(=NO)CO3` (stereo not drawn) is 82 to 100 °C.
As for `COC(=O)Cn1c(=O)c(-c2c(Cl)cccc2Cl)cc2cnc(N)nc21`, the figure is 188 to 190 °C; as for `Cn1nc(-c2c(Cl)cccc2Cl)nc1-c1sc(Br)c(Cl)c1Cl`, 197 to 199 °C.
Compound `Cc1oc(-c2ccccc2)nc1COc1cncc(COc2ccc(CC(=O)O)cc2)c1` returned a melting point of 141 to 142 °C.
The figure for `CCOC(=O)c1oc2cc(O)c(O)cc2c1C` is 212 to 214 °C; for `Cc1oc(-c2ccco2)nc1COc1ccc(C=O)cn1` it is 139 to 140 °C.
Take `O=C1[C@H]2CCC[C@H]2N(C(=O)CBr)c2ccccc2N1Cc1ccccc1` (relative stereo): the melting point was 177 to 179 °C.
Compound `COC(=NS(=O)(=O)c1nc(-c2ccccc2)ns1)C(C)C` registered a melting point of 123 to 124 °C.
As for `N#Cc1ncc(Cl)nc1C#N`, the figure is 89 to 90 °C; as for `CCCn1nc(C(C)C)c(C(=O)OCc2ccccc2C(=O)c2ccccc2)c1Cc1ccc(-c2ccccc2S(=O)(=O)NC(=O)OCC(C)C)c(F)c1`, 52 to 59 °C.
As for `COc1ccc(NCCOc2ccc3ccccc3c2)cc1`, the figure is 92 °C; as for `O=C(O)CCc1cnoc1-c1ccc(-c2ccccc2)cc1`, 94 to 95 °C.
As for `CN(C)C(=O)C(C)(C)n1ccc(-c2cc(Cl)ccc2Cl)n1`, the figure is 94 to 96 °C; as for `CN(C)S(=O)(=O)N1CCN(S(=O)(=O)c2ccc(Oc3ccccc3)cc2)[C@@H](C(=O)NO)C1`, 153 to 155 °C.
Take `O=[N+]([O-])CCN1CCC(n2ccc(-c3ccc(F)cc3)c2-c2ccncc2)CC1`: the melting point was in the range of 172 to 173 °C.
Regarding `COC1C(OC(=O)N2CCOCC2)CCC2(CO2)C1C1(C)OC1CCC(C)C` (stereo not drawn), the melting point fell in the range of 64 to 65 °C.
The figure for `O=Cc1csc(Cc2ccccc2)n1` is 78 °C.
As for `Cc1c(CN(C)CCc2ccc(NS(C)(=O)=O)cc2)oc2ccc([N+](=O)[O-])cc12`, the figure is 124 °C.
The compound `C[C@H](NCc1ccc(OCc2ccccc2F)c(Cc2ccccc2F)c1)C(N)=O` returned a melting point of 161 °C.
Compound `NN(C(=O)c1ccc(Cl)c(S(N)(=O)=O)c1)c1ccc(C(=O)c2ccccc2)cc1[N+](=O)[O-]` returned a melting point of 148 °C.
The figure for `CCCCCCCCCCCCCCCCOCC(CNS(=O)(=O)CCCCl)COC` (stereo not drawn) is 44 to 46.5 °C; for `CCOC(=O)c1ccccc1-n1nc(C(=O)OCC)c2csc(N)c2c1=O` it is 176 to 178 °C; for `CCCN1CCCC2Cc3nc(NC(C)=O)sc3CC21` (stereo not drawn) it is greater than 200 °C.
As for `CCN1C(=O)c2cscc2Nc2ccccc21`, the figure is 175 to 177 °C; as for `COC(=O)CSCC(NC(=O)OC(C)(C)C)c1ccc(F)cc1` (stereo not drawn), 61 to 62 °C; as for `Cc1c(C)c2c(c(C)c1O)SC(C)O2` (stereo not drawn), 125 to 127 °C.
The figure for `Cc1cccc(CC(=O)O)c1OCCCc1cn(-c2ccc(C(F)(F)F)cn2)nc1C(C)C` is 159 to 160 °C.
In turn, `COC(=O)c1ccccc1CS(=O)(=O)NC(=O)Cc1nc(OC)cc(OC)n1` had a melting point of 98 to 101 °C.
The figure for `CC(=O)n1nc(-c2ccc(Cl)cc2)nc1C` is 132 to 133 °C; for `COc1cc2ncnc(N3CCCc4ccccc43)c2cc1OC` it is 130 to 131 °C; for `c1cn(Cc2ccc3c(c2)Cc2c(-c4ccsc4)n[nH]c2-3)cn1` it is 255 to 260 °C.
The figure for `OCc1coc(/C=C/c2ccccc2)n1` is 94 to 95 °C; for `Nc1c(-c2ccc(NS(=O)(=O)c3ccccc3Cl)cc2F)cnc2c(CO)cnn12` it is 204 to 208 °C; for `O=C1CCCCC1C(=S)Nc1ccc(Cl)cc1F` (stereo not drawn) it is 97 to 98 °C.
In turn, `Cc1cc(Cl)ccc1-n1nc(O)c2[nH]c3cc(Cl)ccc3c(=O)c2c1=O` yielded a melting point of 279 to 281 °C.
The figure for `COc1cc(COc2nn(-c3ccccc3)cc2C=O)ccc1OCc1csc(N2CCCCC2)n1` is 123 to 124 °C.
Compound `C=C(Cl)CC(C#N)(C#N)Cc1ccc(Cl)cc1` gave a melting point of 85.5 °C.
Turning to `O=Cc1ccc(-c2nc3ccccn3n2)cc1`, the melting point lay within 246 to 247 °C.
In the case of `COCCCc1cc(N(C)Cc2sc(-c3ccc(C(F)(F)F)cc3)nc2C)ccc1OCC(=O)O`, the melting point is 142 to 143 °C.
As for `CC(=O)C1=C(O)C(=C(C)Nc2cccc(NC(=O)C(O)CO)c2)C(=O)OC1=O` (stereo not drawn), the figure is 218 °C; as for `CCC(=O)OCC(=O)C1(OC(=O)CC)CCC2C3CC(C)C4=CC(=O)C=CC4(C)C3C(O)CC21C` (stereo not drawn), 126 °C.
As for `NC(=O)c1ncn2c1[C@@H]1CCCN1C(=O)c1c-2ccc(F)c1F`, the figure is 221 to 224 °C.
As for `COc1cc(OCc2ccccn2)ccc1/C=C/c1cc(/C=C/c2cc([N+](=O)[O-])c3cc[nH]c3c2)[nH]n1`, the figure is 125 to 131 °C; as for `C[C@H](Nc1ncnc2[nH]cnc12)c1oc2ccc(F)cc2c(=O)c1-c1ccccc1`, 196 to 198 °C.
On to `OC(c1cccs1)C1CCCCC1` (stereo not drawn), for which the melting point was in the range of 90 to 92 °C.
As for `CC(c1ccccc1)c1n[nH]c2c1c(=O)n(-c1ccccc1)c1ncccc21` (stereo not drawn), the figure is 267 to 268 °C; as for `O=C(CNC(=O)CN1CCCC1=O)NCC(=O)Nc1ccncc1`, 250 to 253 °C; as for `CCCNC(=O)Cc1cnc2cccc(C)n2c1=O`, 96 to 98 °C.
Take `O=C(Nc1cnc2c(c1)nc1n2CCC1O)c1cc2cc(C(F)(F)F)ccc2n1Cc1cccc(F)c1` (stereo not drawn): the melting point is 267 to 268 °C.
The figure for `CCCc1c2nc(C(=O)OC)cc(Br)c2cc2c(=O)cc(C(=O)OC)oc12` is 179 to 180 °C; for `COc1ccc(-c2ccc3nnc(-c4ccccc4OC)n3n2)cc1OC` it is 95 to 97 °C.
As for `CC1CCCC(Cl)(Cl)C(=O)N1` (stereo not drawn), the figure is 132 to 134 °C; as for `CC(=O)Oc1ccc(CC(CC(=O)O)N2C(=O)c3ccccc3C2=O)cc1` (stereo not drawn), 151 to 154 °C.
As for `CC(C)(C)c1ccccc1NC(=O)OCC1(COC(=O)Nc2ccccc2C(C)(C)C)CSc2ccccc2C1=O`, the figure is 62 to 68 °C.
The compound `O=[N+]([O-])c1ccc(NS(=O)(=O)c2ccccc2)c(Cl)c1` registered a melting point of 155 to 157 °C.
`O=C1N=C(c2ccc(C(=O)Cl)cc2)C(c2ccc(C(=O)Cl)cc2)O1` (stereo not drawn) had a melting point greater than 300 °C.
The figure for `COC(=S)c1cccc2nc(C)n(Cc3ccc(-c4ccccc4-c4nc(=O)o[nH]4)cc3)c12` is 231 to 232 °C.
As for `CCOC(=O)c1[nH]c2c(C)ccc(Cl)c2c1C`, the figure is 118 to 119 °C.

A word on the melting point: it is the temperature of the solid-liquid transition.
